Experiments:
NHE1 = NHE1 (Homo sapiens, UniProt P19634); assay: Lithium uptake measurement, NHE1 control; type: cell-based; conditions: for Km: Michaelis constant of the cation for the exchanger; for Ki: calculated from dose-response curves of lithium uptake
Experimental: The uptake of lithium was then started by adding the same medium containing 3 to 10 mM LiCl and the various inhibitor concentrations. […] At the end of the uptake time the cells were rinsed rapidly (4 rinses in less than 10 seconds) in PBS at 4° C. 250µl of 25% nitric acid were added per well. The cell contents were then transferred into eppendorf tubes. The tubes were centrifuged for 5 min at 13000 rpm at room temperature. The supernatant is used to measure the activity of NHE7 (or NHE1 in control) by measuring intracellular the Li^+ concentrations (which are due to NHE7 transport) by atomic absorption spectroscopy. (Thermo ICE 3000 Series AA Spectrometer). Data obtained from the uptake measurements were used to plot the dose responses curves i.e. the % of maximal lithium uptake as a function of the inhibitors concentrations (Log scale, figure 1).
It is simple to obtain a linear equation by plotting the Maximal rate (w/o inhibitor) versus the rates in the presence of inhibitor, as a function of the inhibitor concentration. […] Table 1: Ki of the tested inhibitors

NHE7 [1] = target: T1, NHE7 (Homo sapiens, UniProt Q96T83); conditions: Michaelis constant of the cation for the exchanger; cited from earlier work
T1 construct: expressed in transfected cells
T1 sequence (Q96T83 1-725): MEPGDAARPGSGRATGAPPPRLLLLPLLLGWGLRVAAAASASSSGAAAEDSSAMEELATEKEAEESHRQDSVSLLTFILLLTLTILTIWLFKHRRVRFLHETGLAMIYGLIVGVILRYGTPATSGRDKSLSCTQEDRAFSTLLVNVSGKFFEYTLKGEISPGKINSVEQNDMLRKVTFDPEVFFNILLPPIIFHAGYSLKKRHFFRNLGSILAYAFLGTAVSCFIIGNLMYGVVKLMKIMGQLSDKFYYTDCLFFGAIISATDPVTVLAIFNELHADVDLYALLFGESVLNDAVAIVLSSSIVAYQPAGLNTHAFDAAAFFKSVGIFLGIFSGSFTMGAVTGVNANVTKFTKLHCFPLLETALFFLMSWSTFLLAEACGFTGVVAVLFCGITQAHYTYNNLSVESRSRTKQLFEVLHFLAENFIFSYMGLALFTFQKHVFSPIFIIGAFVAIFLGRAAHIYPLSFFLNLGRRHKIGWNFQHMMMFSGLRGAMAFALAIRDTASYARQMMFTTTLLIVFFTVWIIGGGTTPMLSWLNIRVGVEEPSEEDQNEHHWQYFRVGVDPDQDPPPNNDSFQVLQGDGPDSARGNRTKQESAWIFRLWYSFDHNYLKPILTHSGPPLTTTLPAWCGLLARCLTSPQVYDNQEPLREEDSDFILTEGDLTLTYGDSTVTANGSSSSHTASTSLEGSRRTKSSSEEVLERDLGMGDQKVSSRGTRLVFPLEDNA

[2] = tested on: WT NHE7 transfected cells; assay: Endocytosis kinetics: Alexa 555 transferrin uptake in cells expressing NHE7 in intracellular compartments; type: cell-based; conditions: different concentrations of zoniporide, five minutes of incubation, figure 2
Experimental: […] Alexa 555 transferrin (Invitrogen) was bound for various times at 37°C on WT NHE7 transfected cells (that express NHE7 specifically in intracellular compartments) in control conditions or in the presence of zoniporide at the defined concentrations. After five minutes of incubation, the coverslips were rapidly rinsed in ice-cold PBS and the cells were fixed in ice-cold 4% PFA and then permeabilized with 2% saponin. The nuclei were then stained with DAPI. These different steps rinse the transferrin, which has not been internalized, and stop intracellular traffic. This makes it possible to visualize the endocytosis at different times. The coverslips were then mounted and photographed for image analysis and quantification. […] Endocytosis was quantified as the normalized fluorescence accumulation in intracellular clusters as a function of time using a home-made macro (Mica Imaging platform, Nice) on Image J NIH ImageJ (Schneider, C. A.; Rasband, W. S. & Eliceiri, K. W. (2012), "NIH Image to ImageJ: 25 years of image analysis", Nature methods 9(7): 671-675). […] Then, all the clusters of red pixels (Alexa transferrin 555) with a density, a shape and a surface defined by the macro (and parameterizable by the user) are quantified inside each mask. […]

NHE7 [3] = target: T1, NHE7; assay: Lithium uptake in PM-NHE7 cells (atomic absorption spectroscopy), dose-response of inhibitors; type: cell-based; conditions: for Ki: calculated from dose-response curves of lithium uptake, 3 to 10 mM LiCl, initial velocity conditions; for affinity to NHE7 / selectivity of affinity NHE7 compare to NHE1: statement in words; for affinity to NHE7: from dose-response curves (figure 1) and table 1; for selectivity of affinity NHE7 compare to NHE1: from table 1
Experimental: The PM-NHE7 cells selected for NHE7 expression at the plasma membrane (Milosavljevic N, Monet M, Léna I, Brau F, Lacas-Gervais S, Feliciangeli S, Counillon L, Poet M., The intracellular Na(+)/H(+) exchanger NHE7 effects a Na(+)-coupled, but not K(+)-coupled proton-loading mechanism in endocytosis. Cell rep. 7, 1-8, May 8, 2014, 689-696) were seeded to confluence on 24-well plates and incubated for 60 minutes at 37°C in a medium containing 50 mM NH4Cl , 70mM Choline Chloride, 2 mM CaCl2, 1 mM MgCl2, 5 mM glucose, 15 mM Hepes (pH 7.4). The cells were then rinsed twice in less than 15 seconds with 120 mM choline chloride buffered to pH 7.4 with 15 mM Tris, 1 mM MgCl2, 2 mM CaCl2. The uptake of lithium was then started by adding the same medium containing 3 to 10 mM LiCl and the various inhibitor concentrations. Under these conditions, Lithium uptake is linear. All dose-response curves for the inhibitors tested in this study were therefore measured under initial velocity conditions in which equation (1) applies. At the end of the uptake time the cells were rinsed rapidly (4 rinses in less than 10 seconds) in PBS at 4° C. 250µl of 25% nitric acid were added per well. The cell contents were then transferred into eppendorf tubes. The tubes were centrifuged for 5 min at 13000 rpm at room temperature. The supernatant is used to measure the activity of NHE7 (or NHE1 in control) by measuring intracellular the Li^+ concentrations (which are due to NHE7 transport) by atomic absorption spectroscopy. (Thermo ICE 3000 Series AA Spectrometer). Data obtained from the uptake measurements were used to plot the dose responses curves i.e. the % of maximal lithium uptake as a function of the inhibitors concentrations (Log scale, figure 1).
Because acylguanidines are competitive inhibitors of NHE7, the dose response curves of different concentrations of inhibitors on the rate of transport are given by equation (1) below: V = Vmax[Li^(*)]/(Kmapp+[Li^+]); With Kmapp = Km(1 + [I]/Ki] [formula] • where [I] is the inhibitor concentration, • Vmax is the maximum speed of the exchanger, expressed in (100)% in the dose response curves, • Km is the value of the Michaelis constant for Lithium (see Milosavljevic et al., Cell rep. 7, 1-8, May 8, 2014, 689-696 for NHE7) • Ki the dissociation constant for the inhibitor under consideration.
It is simple to obtain a linear equation by plotting the Maximal rate (w/o inhibitor) versus the rates in the presence of inhibitor, as a function of the inhibitor concentration. The slope is then proportional to 1/Ki. Table 1: Ki of the tested inhibitors

Sequence of NHE1 (P19634 whole entry, species assumed): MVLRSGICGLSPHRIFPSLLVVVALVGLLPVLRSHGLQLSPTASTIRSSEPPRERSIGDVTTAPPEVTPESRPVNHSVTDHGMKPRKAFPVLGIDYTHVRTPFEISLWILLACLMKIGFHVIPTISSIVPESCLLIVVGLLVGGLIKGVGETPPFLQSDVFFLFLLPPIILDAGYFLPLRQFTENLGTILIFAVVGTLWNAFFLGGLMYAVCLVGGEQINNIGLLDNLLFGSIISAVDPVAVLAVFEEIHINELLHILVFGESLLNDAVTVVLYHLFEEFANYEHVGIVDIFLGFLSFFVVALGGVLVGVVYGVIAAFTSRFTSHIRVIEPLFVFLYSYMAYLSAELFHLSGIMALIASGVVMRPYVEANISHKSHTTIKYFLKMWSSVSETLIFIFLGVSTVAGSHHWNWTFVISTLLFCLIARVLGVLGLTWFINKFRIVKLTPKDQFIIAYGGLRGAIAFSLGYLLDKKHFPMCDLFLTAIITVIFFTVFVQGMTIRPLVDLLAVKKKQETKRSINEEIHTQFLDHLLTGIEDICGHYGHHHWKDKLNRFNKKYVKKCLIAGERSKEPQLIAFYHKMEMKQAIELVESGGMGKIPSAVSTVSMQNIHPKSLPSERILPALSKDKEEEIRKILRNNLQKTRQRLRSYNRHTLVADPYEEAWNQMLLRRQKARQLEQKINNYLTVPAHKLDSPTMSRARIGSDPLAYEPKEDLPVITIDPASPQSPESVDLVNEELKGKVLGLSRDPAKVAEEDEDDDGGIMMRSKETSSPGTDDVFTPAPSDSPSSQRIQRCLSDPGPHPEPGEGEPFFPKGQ

SMILES | Ki (NHE1) [µM] | Ki (NHE7 [3]) [µM] | also measured
[Li+] [Li^+, lithium] | – | – | Km (NHE1): 10 mM; Km (NHE7 [1]): 16 mM
N=C(N)NC(=O)c1cnn(-c2cccc3ncccc23)c1C1CC1 [Zoniporide, zoniporide] | 0.02 | 0.003 | % of endocytosis [2]: dose-dependent effect; affinity to NHE7 (NHE7 [3]): very good affinity; selectivity of affinity NHE7 compare to NHE1 (NHE7 [3]): selective to NHE7 compare to NHE1
N=C(N)NC(=O)c1nc(Cl)c(N)nc1N [Amiloride, amiloride] | – | 1.64 | –
N=C(N)NC(=O)c1nc(Cl)c(N2CCCCCC2)nc1N [HMA, hexamethyl-amiloride] | 0.02 | 0.08 | –
CC(C)c1ccc(C(=O)NC(=N)N)cc1S(C)(=O)=O [Cariporide, cariporide] | 0.04 | 0.02 | –
Cc1cc(-n2cccc2)c(S(C)(=O)=O)cc1C(=O)NC(=N)N [Eniporide, eniporide] | 0.04 | 0.0025 | affinity to NHE7 (NHE7 [3]): very good affinity; selectivity of affinity NHE7 compare to NHE1 (NHE7 [3]): selective to NHE7 compare to NHE1
CCN(c1nc(N)c(C(=O)NC(=N)N)nc1Cl)C(C)C [EIPA, 5N-(ethylisopropyl) amiloride] | 0.1 | 0.04 | –
[Na+] [Na^+, sodium] | – | – | Km (NHE1): 30 mM
CN(C)c1nc(N)c(C(=O)NC(=N)N)nc1Cl [DMA, dimethyl-amiloride] | 0.1 | 0.17 | –

Reference: EP3403653A1, “COMPOUNDS FOR USE IN TREATING BIPOLAR AND RELATED DISORDERS” (Centre National de la Recherche Scientifique (CNRS), priority 2017, dated 2018)
